Experimental data reported in ChEMBL document CHEMBL1201862, “PubChem BioAssay data set” (2004).
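Exposure lasted 48 hours, with cells grown in 96-well plates and compounds tested at five concentrations. GI50 is the concentration that inhibits growth by half.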 Activity calls are given as the source filed them. Rule as the data show it: active = GI50 up to about 1.1 µM and inactive = higher.

How the values were obtained:
Test in all cases: growth of human tumour cells (NCI), 48 h
[1] = test system: CCRF-CEM
[2] = test system: NCI-H23
[3] = test system: MCF7
[4] = test system: SK-MEL-2
[5] = test system: NCI-H522
[6] = test system: Hs-578T
[7] = test system: HOP-92
[8] = test system: HOP-62
[9] = test system: COLO 205
[10] = test system: OVCAR-5
[11] = test system: KM12
[12] = test system: NCI-H226
[13] = test system: 786-0
[14] = test system: BT-549
[15] = test system: MDA-N
[16] = test system: NCI/ADR-RES
[17] = test system: ACHN
[18] = test system: MDA-MB-435
[19] = test system: K562
[20] = test system: RXF 393
[21] = test system: MDA-MB-231
[22] = test system: Malme-3M
[23] = test system: SR
[24] = test system: PC-3
[25] = test system: SF-295
[26] = test system: NCI-H460
[27] = test system: M14
[28] = test system: SF-268
[29] = test system: SK-OV-3
[30] = test system: TK-10
[31] = test system: SW-620
[32] = test system: CAKI-1
[33] = test system: IGROV-1
[34] = test system: A498
[35] = test system: HT-29
[36] = test system: A549
[37] = test system: EKVX
[38] = test system: UACC-257
[39] = test system: T47D
[40] = test system: OVCAR-4
[41] = test system: RPMI-8226
[42] = test system: HCT-15
[43] = test system: SNB-75
[44] = test system: SK-MEL-5
[45] = test system: HCT-116
[46] = test system: HL-60
[47] = test system: DU-145
[48] = test system: SK-MEL-28
[49] = test system: UACC-62
[50] = test system: UO-31
[51] = test system: U-251
[52] = test system: LOX IMVI
[53] = test system: OVCAR-3
[54] = test system: SN12C
[55] = test system: OVCAR-8
[56] = test system: SNB-19

Question: With `CC(C)C(Nc1ncnc2nc[nH]c12)C(=O)O` (stereo unspecified) as the compound, how does the GI50 [1] read?
Answer: Its GI50 is > 100 µM (inactive).

Question: What about the GI50 [2] of the same compound?
Answer: The GI50 was > 100 µM (inactive).

Question: And the GI50 [3]?
Answer: Its GI50 is > 100 µM (inactive).

Question: What about the GI50 [4] of the same compound?
Answer: Its GI50 is > 100 µM (inactive).

Question: And the GI50 [5]?
Answer: The GI50 was > 100 µM (inactive).

Question: And the GI50 [6]?
Answer: Its GI50 is > 100 µM (inactive).

Question: What about the GI50 [7] of the same compound?
Answer: The GI50 was > 100 µM (inactive).

Question: What about the GI50 [8] of the same compound?
Answer: The GI50 was > 100 µM (inactive).

Question: What about the GI50 [9] of the same compound?
Answer: Its GI50 is > 100 µM (inactive).

Question: What about the GI50 [10] of the same compound?
Answer: The GI50 was > 100 µM (inactive).

Question: What about the GI50 [11] of the same compound?
Answer: Its GI50 is > 100 µM (inactive).

Question: And the GI50 [12]?
Answer: The GI50 was > 100 µM (inactive).

Question: And the GI50 [13]?
Answer: Its GI50 is > 100 µM (inactive).

Question: What about the GI50 [14] of the same compound?
Answer: The GI50 was > 100 µM (inactive).

Question: And the GI50 [15]?
Answer: The GI50 was > 100 µM (inactive).

Question: And the GI50 [16]?
Answer: The GI50 was > 100 µM (inactive).

Question: What about the GI50 [17] of the same compound?
Answer: Its GI50 is > 100 µM (inactive).

Question: What about the GI50 [18] of the same compound?
Answer: The GI50 was > 100 µM (inactive).

Question: And the GI50 [19]?
Answer: Its GI50 is > 100 µM (inactive).

Question: What about the GI50 [20] of the same compound?
Answer: The GI50 was > 100 µM (inactive).

Question: What about the GI50 [21] of the same compound?
Answer: The GI50 was > 100 µM (inactive).

Question: And the GI50 [22]?
Answer: Its GI50 is > 100 µM (inactive).

Question: What about the GI50 [23] of the same compound?
Answer: Its GI50 is > 100 µM (inactive).

Question: What about the GI50 [24] of the same compound?
Answer: Its GI50 is > 100 µM (inactive).

Question: And the GI50 [25]?
Answer: Its GI50 is > 100 µM (inactive).

Question: What about the GI50 [26] of the same compound?
Answer: The GI50 was > 100 µM (inactive).

Question: And the GI50 [27]?
Answer: The GI50 was > 100 µM (inactive).

Question: And the GI50 [28]?
Answer: Its GI50 is > 100 µM (inactive).

Question: And the GI50 [29]?
Answer: Its GI50 is > 100 µM (inactive).

Question: And the GI50 [30]?
Answer: The GI50 was > 100 µM (inactive).

Question: And the GI50 [31]?
Answer: The GI50 was > 100 µM (inactive).

Question: And the GI50 [32]?
Answer: The GI50 was > 100 µM (inactive).

Question: And the GI50 [33]?
Answer: The GI50 was > 100 µM (inactive).

Question: What about the GI50 [34] of the same compound?
Answer: Its GI50 is > 100 µM (inactive).

Question: And the GI50 [35]?
Answer: The GI50 was > 100 µM (inactive).

Question: What about the GI50 [36] of the same compound?
Answer: Its GI50 is > 100 µM (inactive).

Question: And the GI50 [37]?
Answer: The GI50 was > 100 µM (inactive).

Question: And the GI50 [38]?
Answer: The GI50 was > 100 µM (inactive).

Question: What about the GI50 [39] of the same compound?
Answer: The GI50 was > 100 µM (inactive).

Question: What about the GI50 [40] of the same compound?
Answer: Its GI50 is > 100 µM (inactive).

Question: And the GI50 [41]?
Answer: The GI50 was > 100 µM (inactive).

Question: What about the GI50 [42] of the same compound?
Answer: The GI50 was over 100 µM.

Question: And the GI50 [43]?
Answer: Its GI50 is > 100 µM (inactive).

Question: And the GI50 [44]?
Answer: Its GI50 is > 100 µM (inactive).

Question: What about the GI50 [45] of the same compound?
Answer: Its GI50 is > 100 µM (inactive).

Question: What about the GI50 [46] of the same compound?
Answer: Its GI50 is > 100 µM (inactive).

Question: What about the GI50 [47] of the same compound?
Answer: Its GI50 is > 100 µM (inactive).

Question: And the GI50 [48]?
Answer: Its GI50 is > 100 µM (inactive).

Question: What about the GI50 [49] of the same compound?
Answer: Its GI50 is > 100 µM (inactive).

Question: What about the GI50 [50] of the same compound?
Answer: Its GI50 is > 100 µM (inactive).

Question: What about the GI50 [51] of the same compound?
Answer: The GI50 was > 100 µM (inactive).

Question: What about the GI50 [52] of the same compound?
Answer: Its GI50 is > 100 µM (inactive).

Question: And the GI50 [53]?
Answer: The GI50 was > 100 µM (inactive).

Question: And the GI50 [54]?
Answer: Its GI50 is > 100 µM (inactive).

Question: What about the GI50 [55] of the same compound?
Answer: Its GI50 is > 100 µM (inactive).

Question: And the GI50 [56]?
Answer: Its GI50 is > 100 µM (inactive).
